What was measured:
[1] = tested on: parental HEK cells; experiment: HEK parental Antagonist Counterscreen Assay (non-transfected cells, acetylcholine control); type: cell-based; conditions: for EC50: Homo sapiens, HEK293, acetylcholine as control, scientific notation, molarity
Description: C. […] The HEK parental counterscreen utilized the same cells but not transfected with the plasmid. The agonist and antagonist modes were run the same way as the primary screen but acetylcholine was used in place of GPR139 agonist as the control compound.
The HEK parental counterscreen utilized the same cells but not transfected with the plasmid. The antagonist modes assays utilized the cells being plated in the 1536 well plate overnight in growth media prior to dye loading in PDL coated plates and acetylcholine was used in place of GPR139 agonist as the control compound.
(§1) The HEK parental counterscreen utilized the same cells but not transfected with the plasmid. Acetylcholine was used in place of GPR139 agonist as the control compound. The cells were plated overnight, similar to the HEK antagonist counterscreen protocol.
The HEK parental counterscreens utilized the same cells but not transfected with the plasmid. Acetylcholine was used in place of GPR139 agonist as the control compound. The cells were plated overnight, similar to the HEK antagonist counterscreen protocol.
(§2) For each test compound, percent activation was plotted against compound concentration. A four parameter equation describing a sigmoidal dose-response curve was then fitted with adjustable baseline using Assay Explorer software (Symyx Technologies Inc.).

[2] = target: T1, GPR139 (Homo sapiens, UniProt Q6DWJ6); experiment: GPR139 Agonist titration / agonist counterscreen assay (calcium detection, HEK-GPR139 cells); type: cell-based; parameters: expressed in transfected cells; host or cells: HEK Aequorin cells, Maxcyte transient transfection; conditions: agonist counterscreen of the antagonists; for EC50: scientific notation, molarity, read-out: GRP139 Agonist activity EC50
T1 sequence (Q6DWJ6 1-353): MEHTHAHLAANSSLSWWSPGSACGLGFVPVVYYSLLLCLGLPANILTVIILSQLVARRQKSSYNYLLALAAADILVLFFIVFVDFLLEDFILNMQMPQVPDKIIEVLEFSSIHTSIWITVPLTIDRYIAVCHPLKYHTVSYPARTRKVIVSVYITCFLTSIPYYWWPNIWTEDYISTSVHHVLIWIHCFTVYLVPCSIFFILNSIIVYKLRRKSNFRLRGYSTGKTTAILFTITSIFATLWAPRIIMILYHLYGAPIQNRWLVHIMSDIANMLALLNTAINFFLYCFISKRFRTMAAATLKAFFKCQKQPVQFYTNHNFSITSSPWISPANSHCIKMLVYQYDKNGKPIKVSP
Description: GPR activity was assessed using a calcium detection assay. […] Negative control samples were treated with DMSO. […] Intracellular calcium was measured using Calcium 5.

[3] = target: T1, GPR139; experiment: GPR139 Antagonist titration assay (calcium detection, HEK-GPR139 cells, vs EC80 of S-JNJ-63533054); conditions: for GPR139 Antagonist Activity Averaged Max % Response (±St. Dev.): activity relative to known control; for GPR139 Antagonist Activity Lipophilic Efficiency (logD): based on logD; for GPR139 Antagonist Activity Lipophilic Efficiency (logP): based on logP; for GPR139 Antagonist Activity Hill Slope: fitted dose-response curve
Description: GPR activity was assessed using a calcium detection assay. GPR139 agonists stimulate an increase in intracellular calcium in HEK-GPR139 cells. Agonists increase the release of intracellular calcium, while antagonists decrease the release of intracellular calcium, as compared to an EC80 stimulation of the know agonist S-JNJ-63533054. The positive control for the agonist mode was cells treated with EC100 of known agonist S-JNJ-63533054. Negative control samples were treated with DMSO. The antagonist high control in cells was EC80 of S-JNJ-63533054+IC100 S-JNJ-3792165, while cells were treated with EC80 of S-JNJ-63533054+DMSO for the low control. Intracellular calcium was measured using Calcium 5.
HEK cells were transfected the DNA encoding GPR139 and incubated for 24 hours. 3000 cells/well in 3 μL HEPES and 1% DMSO were seeded into 1536-well plates. 3 μL Calcium 5 was then added to each well and cells were incubated for 60 min. at 37° C. in 5% CO2 and 95% relative humidity. Cells were pretreated with 50 nL DMSO (5 min. at room temperature in the dark) to stabilize response and desensitize cells to DMSO. A 5 second basal read was recorded and compounds in 30 nL were added to the cells, followed by a 150 second read.
B. Antagonist Mode: The “High Control” represented wells containing cells with GPR139+Antagonist IC100+Agonist EC80. “Low Control” represented wells containing cells with GPR139 with EC100 Agonist. “0% control” and sample field represented wells containing cells with GPR139 with EC80 Agonist with DMSO or compounds. The Z′ and S:B for this assay were calculated using the High Control and Low Control wells.
as §1
The GPR139 Agonist and Antagonist titration assays employed the same reagents, protocols, and detection systems as the primary assays, but tested each as 10 point dose response starting at 676 nM concentration in triplicate with 1:3 dilutions. The HEK parental counterscreens utilized the same cells but not transfected with the plasmid. Acetylcholine was used in place of GPR139 agonist as the control compound. The cells were plated overnight, similar to the HEK antagonist counterscreen protocol.
as §2

[4] = target: T1, GPR139; experiment: [3H]JNJ-63533054 radioligand competition binding assay on membranes of HEK293T/17 cells; parameters: HA signal peptide (HASP) (N); expressed in transfected cells; host or cells: HEK293T/17 cells (membrane preparation); conditions: for inhibition at 10 µM: 10 μM of the indicated compound, (10 μM) JNJ-63533054 as printed in title; for Ki: Ki=IC50/(1+C/Kd), membranes of HEK293T/17 cells expressing human GPR139, read-out: Ki ± SEM
Description: Eighteen compounds were selected for additional study. The compounds were re-synthesized and tested in radioligand binding competition assays for their ability to displace [^3H]-labeled reference agonist JNJ-63533054 on GPR139. The GPR139 construct used (pCDNA3.1-HASP-HA-GPR139) contained an N-terminal HA signal peptide (HASP), followed by an HA tag and human GPR139 (NM_001002911.4). HEK293T/17 cells were maintained in Dulbecco's modified Eagle's medium with 10% (v/v) fetal bovine serum, nonessential amino acids, and 1 mM sodium pyruvate.
Competition binding assay: Radioligand binding assay used human GPR139 expressed in HEK293T/17 cells. HEK293T/17 cells were transfected pCDNA3.1-HASP-HA-GPR139. 48 h after, cells were detached from plates by pipetting with PBS, centrifuged at 500×g for 5 min, and then the fluid was aspirated away. The cell pellets were frozen with liquid nitrogen and stored at −80° C. Pellets were homogenized in TE buffer (50 mM Tris-HCl, pH 7.4, 5 mM EDTA) and centrifuged at 1000×g at 4° C. for 5 min. Supernatant was collected and recentrifuged at 30,000×g at 4° C. for 30 min. The pellet was rehomogenized in TE buffer and incubated for 60 minutes at room temperature with eight concentrations of [^3H]JNJ-63533054 (specific activity 24.7 Ci/mmol) ranging from 0.024 nM to 400 nM. The binding reaction was terminated by filtration through GF/C filter (Waterman) followed by washes with cold TE buffer. Filters were dried in a hood overnight followed by the addition of scintillation fluid. Bound radioactivity was counted on a Hidex 600 liquid scintillation counter. […] Nonspecific binding was determined with 10 μM JNJ-63533054. The Kd values of the radioligands and IC50 of the antagonist were calculated by Graphpad Prism. Ki values were calculated as Ki=IC50/(1+C/Kd), where C is concentration of the radioligand.
Various concentrations of selected ligands were then added in the presence of 10 nM [^3H]-JNJ-63533054 and their ability to displace [^3H]labeling on cellular membranes was assessed. FIGS. 3B and 3C present representative data obtained in these experiments. […] The results of these experiments are presented in the Table 3 and confirm selective binding the compounds to GPR139 thereby validating their interaction with the intended target.

Row | SMILES | HEK antagonist activity Averaged Max % Response (±St. Dev.) [1] | EC50 [1] | GRP139 Agonist activity Averaged Max % Response (±St. Dev.) [2] | EC50 [2] | EC50 [3] | GPR139 Antagonist Activity Ligand Efficiency [3] | GPR139 Antagonist Activity Averaged Max % Response (±St. Dev.) [3] | GPR139 Antagonist Activity Lipophilic Efficiency (logD) [3] | GPR139 Antagonist Activity Lipophilic Efficiency (logP) [3] | GPR139 Antagonist Activity Hill Slope [3] | inhibition at 10 µM [4] | Ki [4]
1 | CCN1C(=O)c2cccc3c(S(=O)(=O)Nc4cccc(F)c4)ccc1c23 [SR-01000110577] | 24.57 ± 3.75% | > 14.1 µM | 5.61 ± 4.33% | > 14.1 µM | 6.9 µM | 0.28 | 81.68 ± 2.49% | 2.48 | 2.23 | 0.62 | -117 ± 2.89% | 8.03 ± 0.18 µM
2 | COc1ccc(-c2noc(CN3CCCN(c4ccc(F)cc4)CC3)n2)c(OC)c1OC [SR-01000169333] | 9.54 ± 10.14% | > 14.1 µM | 2.42 ± 7.61% | > 14.1 µM | 8.4 µM | 0.22 | 66.19 ± 8.60% | 1.64 | 1.37 | 1.11 | 64.5 ± 1.23% | 4.09 ± 0.09 µM
3 | O=C(CCCC(=O)OCC(Cl)=C(Cl)Cl)Nc1ccccc1F [SR-01000195221] | 28.17 ± 14.51% | > 14.1 µM | 3.53 ± 6.53% | > 14.1 µM | 6.3 µM | 0.33 | 86.87 ± 1.46% | 1.71 | 1.71 | 0.88 | 77.7 ± 1.19% | 9.98 ± 0.23 µM
4 | CCOC(=O)c1ccc2nc(C)c3c(c2c1)OC(C(C)(Cl)Br)C3 (stereo not drawn) [SR-01000220077] | 5.29 ± 23.62% | > 14.1 µM | 29.53 ± 3.67% | > 14.1 µM | 4.7 µM | 0.32 | 82.15 ± 3.63% | 1.23 | 1.20 | 0.74 | 77.8 ± 5% | 7.31 ± 0.16 µM
5 | CCCOC(=O)c1ccc(NC(=O)CSc2ccccc2)cc1 [SR-01000244770] | 15.65 ± 7.33% | > 14.1 µM | 7.91 ± 4.93% | > 14.1 µM | 6.9 µM | 0.31 | 82.77 ± 1.38% | 1.07 | 1.07 | 1.77 | 56.3 ± 7.8% | 146 ± 0.003 µM
6 | Cc1cc(I)ccc1NC(=O)CSc1cccs1 [SR-01000253143] | 22.82 ± 1.84% | > 14.1 µM | 4.38 ± 3.28% | > 14.1 µM | 4.3 µM | 0.42 | 63.84 ± 2.29% | 0.78 | 0.78 | 0.87 | 54.3 ± 5.98% | 0.13 ± 0.01 µM
7 | Cc1cccc(NC(=O)CCC(=O)OCc2ccc(Br)cc2)c1 [SR-01000258561] | 50.40 ± 13.43% | 13.8 µM | 45.23 ± 2.15% | > 14.1 µM | 2.3 µM | 0.34 | 102.3 ± 0.93% | 1.45 | 1.45 | 1.14 | 35.6 ± 21.2% | 7.14 ± 0.16 µM
8 | O=C(CS(=O)(=O)c1ccccc1)Nc1ccc(Oc2ccccc2)cc1 [SR-01000263867] | 20.24 ± 7.73% | > 14.1 µM | 4.67 ± 4.93% | > 14.1 µM | 2.1 µM | 0.31 | 84.30 ± 2.68% | 1.99 | 1.99 | 0.99 | 59.3 ± 7.51% | 4.91 ± 1.1 µM
9 | CCOC(=O)c1c(C)nc2c(c1-c1ccc(F)cc1)C(=O)CC(c1ccc(Cl)cc1)C2 (stereo not drawn) [SR-01000419112] | 18.74 ± 4.66% | > 11.7 µM | 0.45 ± 5.31% | > 11.7 µM | 7.8 µM | 0.23 | 67.9 ± 10.41% | 0.44 | 0.44 | 1.28 | 102 ± 4.88% | 0.98 ± 0.02 µM

From patent US20250099420A1, “SMALL MOLECULE MODULATORS OF GPR139 COMPLEX” (University of Florida Research Foundation, Incorporated, priority 2022, published 2025)
